{"source": "patent US20030084473A1", "about": "“Non-transgenic herbicide resistant plants” (priority 2001, published 2003)", "origin": "cited, not measured here", "target": "wild-type EPSPS from E. coli (Escherichia coli, UniProt P0A6D3)", "sequence (P0A6D3 whole entry)": "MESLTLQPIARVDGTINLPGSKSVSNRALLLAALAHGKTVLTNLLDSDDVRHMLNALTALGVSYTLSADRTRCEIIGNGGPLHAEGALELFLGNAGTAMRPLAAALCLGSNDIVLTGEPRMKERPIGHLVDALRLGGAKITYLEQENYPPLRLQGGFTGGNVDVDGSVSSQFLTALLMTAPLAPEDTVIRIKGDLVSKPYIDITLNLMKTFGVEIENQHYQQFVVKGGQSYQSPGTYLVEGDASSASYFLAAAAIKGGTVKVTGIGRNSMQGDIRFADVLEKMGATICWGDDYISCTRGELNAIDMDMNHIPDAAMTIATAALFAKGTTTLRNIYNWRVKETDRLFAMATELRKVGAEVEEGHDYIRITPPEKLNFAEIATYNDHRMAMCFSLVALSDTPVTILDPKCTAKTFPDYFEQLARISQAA", "conditions": "read-out: apparent Km for PEP"}
{"smiles": "C=C(OP(=O)(O)O)C(=O)O", "note": "[PEP, phosphoenolpyruvic acid]", "values": [{"measurement": "Km", "value": 10, "unit": "µM"}]}
